Measurements taken from US20190008870A1, “COMPOSITIONS AND METHODS FOR LIPID METABOLISM DISORDER” (JANSFAT BIOTECHNOLOGY CO., LTD., priority 2016, published 2019).

What was measured:
[1] = system: HSL; assay: HSL immunoreactivity in HepG2 cells; type: cell-based; conditions: 24 hours
Protocol: To determine that KMUP-1 or targeted drugs can affect PKA, we incubated KMUP-1 (10^−4, 10^−5, 10^−6 M) or targeted drugs with HepG2 cells for 24 hours to measure the protein expressions of PKA/PKG by Western blotting or PKA/PKG and HSL immunoreactivities by fluorescence staining, combined with image scanning in the absence or presence of oxidized LDL (200 μg/mL).

[2] = system: eNOS; assay: Expression of eNOS (Table 12); conditions: Control group 100 (%)
[3] = system: liver fat globules; assay: Amounts and diameter of liver fat globules in IHC-stained liver sections (steatohepatitis); type: in vivo; set-up: Amounts of liver fat globules, p-HSL staining / Amounts of liver fat globules, TNF-α staining / Amounts of liver fat globules, MMP-9 staining / Amounts of liver fat globules, HSL staining / Amounts of fat globules in steatohepatitis, ATGL staining / Amounts of fat globules in steatohepatitis, CD11c-M1 staining / Amounts of fat globules in steatohepatitis, CD209a-M2 staining: unit not given here; conditions: HFD mice
Protocol: The diameter of the white bar in the photograph was standardized at […] for measuring the specific diameter of oil globulets in a whole liver slice, observed by microscope, with the aid of Powerpoint PC computer software (Microsoft®, U.S.A.) and printed out by a Hewlett-Packard® printer (U.S.A.). An increase in oil globulet diameter and cell number indicated increasing liver steatosis, i.e. steaotohepatitis. In contrast, decrease in diameter and the number of fat cells indicated the inhibition of steaotohepatitis. […] Hematoxylin-eosin (H&E) and IHC staining of liver were used to assess oil globulet numbers under a microscope.
(§1) For IHC of MMP-9/TNFα, HSL/p-HSL/ATGL and eNOS/IL-10, antigen retrieval of de-paraffinated sections was performed in Dako target retrieval solution, pH 9.0, in a vegetable steamer followed by the quenching of endogenous peroxidase activity with 3.0% H2O2 in methanol. Sections were then incubated with specific primary antibodies overnight at 4° C. in a humidified chamber. The antibodies used included rabbit polyclonal anti-eNOS (1:50 dilution) (Abcam, Cambridge, UK) or rabbit monoclonal anti-cleaved caspase-3 (1:50 dilution) (Cell Signaling, U.S.A.). The sections were then examined using a DAKO REAL EnVision™ Detection System kit (DAKO, Carpinteria, Calif., U.S.A.) and counterstained with hematoxylin. Images were obtained through a Nikon Eclipse TE200-S microscope.

[4] = system: SR-B1; assay: HFD-induced hepatic SR-B1 expression; type: in vivo; conditions: HFD mice; for SR-B1: CTL 100 (Table 8); for SR-B1 expression: Control 100%
Protocol: In the experiment, C57BL/6J male mice (21-22 g), after fasting, were fed an HFD as a model of hyperlipidemia for 8 weeks. During the 2 month experiments, mice fasted for one night before the experiment was changed from a standard diet (STD) to an HFD and then the mice were randomly divided into 13 groups, including a protection group, 2 control and 10 treatment groups. Six mice were used in each group. […] Liver from the protection group supplemented with KMUP-1 HCl (1 mg/kg/day) were used to determine the HMG CoA reductase expression. Each group of mice had free access to drinking water from week 1 to week 14. Tap water was used to normalize mineral nutrition.
For the expression of SR-B1, HMGR, PPARγ and ROCK II, isolated liver tissues were cut into small chips and placed into an extraction buffer (Tris 10 mM, pH 7.0, NaCl 140 mM, PMSF 2 mM, DTT 5 mM, NP-40 0.5%, pepstatin A 0.05 mM and leupeptin 0.2 mM) for hepatic protein extraction, and centrifuged at 20,000×g for 30 minutes. The obtained protein extract was boiled to a ratio of 4:1 with a sample buffer (Tris 100 mM, pH 6.8, glycerol 20%, SDS 4% and bromophenol blue 0.2%). Electrophoresis was performed using 10% SDS-polyacrylamide gel (1 hour, 100 V, 40 mA, 20 μg protein per lane).
Separated proteins, after 3 repeated centrifugations to discard up-layer tissue lipid in purity, were transferred to PVDF membranes treated with 5% fat-free milk powder to block the nonspecific IgGs (90 minutes, 100 V) and incubated for 1 hour with specific protein antibody. The blot was then incubated with anti-mouse or anti-goat IgG linked to alkaline phosphatase (1:1000) for 1 hour.

[5] = system: eNOS; assay: IHC staining of eNOS in epididymal fat pads; type: in vivo, mice; conditions: HFD 14 weeks, KMUP-1 2.5 mg/kg/day, Control 50.5
Protocol: as §1

[6] = system: TNF-α; assay: IHC staining of TNF-α in epididymal fat pads; type: in vivo, mice; conditions: HFD 14 weeks, KMUP-1 2.5 mg/kg/day, Control 36
Protocol: as §1

[7] = system: LDLRs; assay: Fluorescence staining of LDLRs in HepG2 cells; type: cell-based
Protocol: HepG2 cells were used to determine the cellular protein expression of LDLRs in the presence of exogenous LDL (500 μg/mL). […] All images were collected and analyzed by scanning with Nikon Eclipse TE200-S microscope (Tokyo, Japan).

[8] = system: LDLRs; assay: IHC staining of LDLRs in livers of HFD mice; type: in vivo; conditions: HFD animals, protection and treatment groups

Cn1c(=O)c2c(ncn2CCN2CCN(c3ccccc3Cl)CC2)n(C)c1=O [KMUP-1, 7-[2-[4-(2-chlorophenyl)piperazinyl]ethyl]-1,3-dimethylxanthine]
HSL immunoreactivity (green fluorescence) [1]: increased
eNOS expression [2]: 155.16 ± 14.8%
Amounts of fat globules in steatohepatitis, ATGL staining ([3]; Protection group): 28
Amounts of fat globules in steatohepatitis, CD11c-M1 staining ([3]; Protection group): 26
Amounts of fat globules in steatohepatitis, CD209a-M2 staining ([3]; Protection group): 41
Amounts of liver fat globules, HSL staining ([3]; Protection group): 115
Amounts of liver fat globules, MMP-9 staining ([3]; Protection group): 18
Amounts of liver fat globules, TNF-α staining ([3]; Protection group): 18
Amounts of liver fat globules, p-HSL staining ([3]; Protection group): 28
Diameter of fat globules in steatohepatitis, ATGL staining ([3]; Protection group): 5.5 μm
Diameter of fat globules in steatohepatitis, CD11c-M1 staining ([3]; Protection group): 8 μm
Diameter of fat globules in steatohepatitis, CD209a-M2 staining ([3]; Protection group): 9.5 μm
Diameter of liver fat globules, HSL staining ([3]; Protection group): 9.7 μm
Diameter of liver fat globules, MMP-9 staining ([3]; Protection group): 8 μm
Diameter of liver fat globules, TNF-α staining ([3]; Protection group): 8 μm
Diameter of liver fat globules, p-HSL staining ([3]; Protection group): 3.9 μm
Amounts of fat globules in steatohepatitis, ATGL staining ([3]; Treatment group): 46
Amounts of fat globules in steatohepatitis, CD11c-M1 staining ([3]; Treatment group): 41
Amounts of fat globules in steatohepatitis, CD209a-M2 staining ([3]; Treatment group): 50
Amounts of liver fat globules, HSL staining ([3]; Treatment group): 116
Amounts of liver fat globules, MMP-9 staining ([3]; Treatment group): 19
Amounts of liver fat globules, TNF-α staining ([3]; Treatment group): 19
Amounts of liver fat globules, p-HSL staining ([3]; Treatment group): 68
Diameter of fat globules in steatohepatitis, ATGL staining ([3]; Treatment group): 9.8 μm
Diameter of fat globules in steatohepatitis, CD11c-M1 staining ([3]; Treatment group): 15.5 μm
Diameter of fat globules in steatohepatitis, CD209a-M2 staining ([3]; Treatment group): 11.8 μm
Diameter of liver fat globules, HSL staining ([3]; Treatment group): 9.8 μm
Diameter of liver fat globules, MMP-9 staining ([3]; Treatment group): 9 μm
Diameter of liver fat globules, TNF-α staining ([3]; Treatment group): 9 μm
Diameter of liver fat globules, p-HSL staining ([3]; Treatment group): 9.8 μm
SR-B1 ([4]; Protection group): 29%
SR-B1 expression ([4]; drinking KMUP-1, Protection group): 30%
SR-B1 expression ([4]; drinking KMUP-1, Treatment group): 59%
SR-B1 ([4]; treatment 2.5 mg/200 mL drink): 59%
Immunorespons percentages, eNOS [5]: 39%
Immunorespons percentages, TNF-α [6]: 22%
LDLR (green fluorescence) expression ([7]; 24 hours, KMUP-1 10^−6, 10^−5, 10^−4 M, simvastatin 10^−5 M): increased
LDLR fluorescence at high concentration ([7]; concentrations >10^−4 M, near the viability range): decline in fluoresence
hepatic LDLRs (IHC staining) [8]: increased
